Laboratory results as given in patent publication US20180000089A1, “NOVEL MICROBIOCIDES” (Syngenta Participations AG, priority 2015, published 2018).

Assays:
Plasmopara viticola = test: whole plant or invertebrate; assay type: in vivo; conditions: foliar, read-out: disease control
[1] = test system: Glomerella lagenarium (Colletotrichum Lagenarium); test: Glomerella lagenarium (Colletotrichum lagenarium) / liquid culture (anthracnose); assay type: cell-based; conditions: Colletotrichum orbiculare, PDB, 24° C., inhibition of growth measured photometrically 3-4 days after application, read-out: disease control
Procedure: (§1) 10 Glomerella lagenarium (Colletotrichum Lagenarium)/Liquid Culture (Anthracnose): Conidia of the fungus from cryogenic storage were directly mixed into nutrient broth (PDB potato dextrose broth). After placing a DMSO solution of test compound into a 96-well microtiter plate at an application rate of 200 ppm, the nutrient broth containing the fungal spores was added. The test plates were incubated at 24° C. and the inhibition of growth was measured photometrically 3-4 days after application.

[2] = test system: Mycosphaerella arachidis (Cercospora arachidicola); test: Mycosphaerella arachidis (Cercospora arachidicola) / liquid culture (early leaf spot); assay type: cell-based; conditions: PDB, 24° C., inhibition of growth determined photometrically 4-5 days after application, read-out: disease control
Procedure: as §1, with “11 Mycosphaerella arachidis (Cercospora arachidicola)/Liquid” for “10 Glomerella lagenarium (Colletotrichum Lagenarium)/Liquid”, “(Early Leaf Spot):” for “(Anthracnose):”, “determined” for “measured”, “4-5” for “3-4”

[3] = test system: Botryotinia fuckeliana (Botrytis cinerea); test: Botryotinia fuckeliana (Botrytis cinerea) / liquid culture (gray mould); assay type: cell-based; conditions: Vogels broth, 24° C., inhibition of growth determined photometrically 3-4 days after application, read-out: disease control
Procedure: as §1, with “9 Botryotinia fuckeliana (Botrytis cinerea)/liquid culture (Gray mould):” for “10 Glomerella lagenarium (Colletotrichum Lagenarium)/Liquid Culture (Anthracnose):”, “(Vogels” for “(PDB potato dextrose”, “determined” for “measured”

[4] = test system: Monographella nivalis (Microdochium nivale); test: Monographella nivalis (Microdochium nivale) / liquid culture (foot rot cereals); assay type: cell-based; conditions: PDB, 24° C., inhibition of growth determined photometrically 4-5 days after application, read-out: disease control
Procedure: as §1, with “14 Monographella nivalis (Microdochium nivale)/liquid culture (foot rot cereals):” for “10 Glomerella lagenarium (Colletotrichum Lagenarium)/Liquid Culture (Anthracnose):”, “determined” for “measured”, “4-5” for “3-4”

[5] = test system: Mycosphaerella graminicola (Septoria tritici); test: Mycosphaerella graminicola (Septoria tritici) / liquid culture (Septoria blotch); assay type: cell-based; conditions: Zymoseptoria tritici, PDB, 24° C., inhibition of growth determined photometrically 4-5 days after application, read-out: disease control
Procedure: as §1, with “12 Mycosphaerella graminicola (Septoria tritici)/Liquid” for “10 Glomerella lagenarium (Colletotrichum Lagenarium)/Liquid”, “(Septoria Blotch):” for “(Anthracnose):”, “determined” for “measured”, “4-5” for “3-4”

Sclerotinia sclerotiorum = Sclerotinia sclerotiorum / liquid culture (cottony rot); assay type: cell-based; conditions: PDB, 24° C., inhibition of growth determined visually 3-4 days after application, read-out: disease control
Procedure: 17 Sclerotinia sclerotiorum/liquid culture (cottony rot): Mycelia fragments of a newly grown liquid culture of the fungus were directly mixed into nutrient broth (PDB potato dextrose broth). After placing a (DMSO) solution of the test compounds into a microtiter plate (96-well format) the nutrient broth containing the fungal material was added. The test plates were incubated at 24° C. and the inhibition of growth was determined visually 3-4 days after application.

Fusarium culmorum = test: microbe, parasite or virus in culture; assay type: cell-based; conditions: read-out: disease control
Pythium ultimum = Pythium ultimum / liquid culture (seedling damping off); assay type: cell-based; conditions: Globisporangium ultimum, potato dextrose broth, 24° C., inhibition of growth determined photometrically 2-3 days after application, read-out: disease control
Procedure: 8 Pythium ultimum/Liquid Culture (Seedling Damping Off) Mycelia fragments and oospores of a newly grown liquid culture of the fungus were directly mixed into nutrient broth (potato dextrose broth). After placing a DMSO solution of test compound into a 96-well format microtiter plate at an application rate of 200 ppm, the nutrient broth containing the fungal mycelia/spore mixture was added. The test plates were incubated at 24° C. and the inhibition of growth was determined photometrically 2-3 days after application.

Pyrenophora teres = Pyrenophora teres / barley / leaf disc preventative (net blotch); assay type: in vivo; conditions: 200 ppm; barley leaf segments cv Hasso, inoculated two days after application; assessed 5-7 days after application vs untreated
Procedure: 5 Pyrenophora teres/Barley/Leaf Disc Preventative (Net Blotch): Barley leaf segments cv Hasso were placed on agar in a 24-well plate and sprayed with formulated test compound diluted in water at an application rate of 200 ppm. The leaf segments were inoculated with a spore suspension of the fungus two days after application of the test solution. The inoculated leaf segments were incubated at 20° C. and 65% relative humidity under a light regime of 12/12 h (light/dark) in a climate cabinet and the activity of a compound was assessed as disease control compared to untreated when an appropriate level of disease damage appears in untreated check leaf segments (5-7 days after application).

Gaeumannomyces Graminis = test: Gaeumannomyces graminis / liquid culture (take-all of cereals); assay type: cell-based; conditions: PDB, 24° C., inhibition of growth determined photometrically 4-5 days after application, read-out: disease control
Procedure: 13 Gaeumannomyces Graminis/Liquid Culture (Take-all of Cereals): Mycelial fragments of the fungus from cryogenic storage were directly mixed into nutrient broth (PDB potato dextrose broth). […] The test plates were incubated at 24° C. and the inhibition of growth was determined photometrically 4-5 days after application.

Alternaria solani = Alternaria solani / tomato / leaf disc (early blight); assay type: in vivo; conditions: 200 ppm; tomato leaf disks cv. Baby, inoculated 2 days after application; assessed 5-7 days after application vs untreated
Procedure: 6 Alternaria solani/Tomato/Leaf Disc (Early Blight) Tomato leaf disks cultivated variety (cv.) Baby were placed on agar in multiwell plates (24-well format) and sprayed with the formulated test compound diluted in water at an application rate of 200 ppm. The leaf disks were inoculated with a spore suspension of the fungus 2 days after application. The inoculated leaf disks were incubated at 23° C./21° C.

[6] = test system: Magnaporthe grisea (Pyricularia oryzae); assay type: in vivo; conditions: 200 ppm; rice leaf segments cv. Ballila, inoculated 2 days after application; assessed 5-7 days after application vs untreated
[7] = test system: Thanatephorus cucumeris (Rhizoctonia solani); test: Thanatephorus cucumeris (Rhizoctonia solani) / liquid culture (foot rot, damping-off); assay type: cell-based; conditions: PDB, 24° C., inhibition of growth determined photometrically 3-4 days after application, read-out: disease control
Procedure: 16 Thanatephorus cucumeris (Rhizoctonia solani)/liquid culture (foot rot, damping-off): Mycelia fragments of a newly grown liquid culture of the fungus were directly mixed into nutrient broth (PDB potato dextrose broth). After placing a DMSO solution of the test compounds into a 96-well microtiter plate at an application rate of 200 ppm, the nutrient broth containing the fungal material was added. The test plates were incubated at 24° C. and the inhibition of growth was determined photometrically 3-4 days after application.

Structure (SMILES)	pest or weed control at 200 ppm (Plasmopara viticola) [%]	inhibition of growth at 200 ppm [1] [%]	inhibition of growth at 200 ppm [2] [%]	inhibition of growth at 200 ppm [3] [%]	inhibition of growth at 200 ppm [4] [%]	inhibition of growth at 200 ppm [5] [%]	inhibition of growth at 200 ppm (Sclerotinia sclerotiorum) [%]	inhibition of growth at 200 ppm (Fusarium culmorum) [%]	melting point [°C]	inhibition of growth at 200 ppm (Pythium ultimum) [%]	disease control (Pyrenophora teres)	inhibition of growth at 200 ppm (Gaeumannomyces Graminis) [%]	disease control (Alternaria solani)	disease control [6]	inhibition of growth at 200 ppm [7] [%]
OB1OCc2cc(F)c(-c3ccc(F)cc3)cc21 [Compound 10]	≥ 80	≥ 80	≥ 80	≥ 80	≥ 80	≥ 80	≥ 80	≥ 80	161 to 163	≥ 80	at least 80%	≥ 80	–	–	–
OB1OCc2ccc(-c3ccccc3)cc21 [Compound 1, 1-hydroxy-6-phenyl-3H-2,1-benzoxaborole]	≥ 80	≥ 80	≥ 80	≥ 80	≥ 80	≥ 80	≥ 80	–	140 to 150	≥ 80	–	≥ 80	at least 80%	–	–
OB1OCc2cc(F)c(-c3ccccc3)cc21 [Compound 9]	≥ 80	≥ 80	≥ 80	≥ 80	≥ 80	≥ 80	≥ 80	≥ 80	142 to 152	≥ 80	–	≥ 80	–	at least 80%	–
COc1ccc(Cl)cc1-c1cc2c(cc1Cl)COB2O [Compound 31]	–	≥ 80	≥ 80	≥ 80	≥ 80	≥ 80	≥ 80	≥ 80	–	≥ 80	–	–	–	–	≥ 80
COc1ccccc1-c1cc2c(cc1Cl)COB2O [Compound 7, 5-chloro-1-hydroxy-6-(2-methoxyphenyl)-3H-2,1-benzoxaborole]	≥ 80	≥ 80	–	–	–	≥ 80	–	≥ 80	90 to 105	≥ 80	–	–	–	–	≥ 80
OB1OCc2cc(Cl)c(-c3ccccc3)cc21 [Compound 3, 5-chloro-1-hydroxy-6-phenyl-3H-2,1-benzoxaborole]	≥ 80	≥ 80	≥ 80	≥ 80	≥ 80	≥ 80	≥ 80	≥ 80	135 to 145	≥ 80	–	≥ 80	–	–	≥ 80
OB1OCc2cc(F)c(-c3ccc(Cl)cc3Cl)cc21 [Compound 28]	–	–	≥ 80	≥ 80	–	≥ 80	≥ 80	–	–	–	–	≥ 80	–	–	≥ 80
